Tested on: LoVo colorectal cancer cells
Test: in vitro growth / proliferation of LoVo colon cancer cells
Assay type: cell-based, human
Conditions: for antineoplastic activity of peaks and peak combinations: 450 uM, FIG. 14
Method: FIG. 2. […] The extracts were prepared with water, then dried and dissolved in methanol. Control contains no extract added and the methanol control is a control containing 5% methanol as was used to dissolve the dried aqueous extract. FIG. 3. Effects of ethyl acetate (a and b) and methanol (c and d) extracts at to concentration of 75 ug/ml on LoVo colorectal cancer cells (a and c) and we38 human fetal fibroblast cells (b and d). FIG. 4. […] An assay to test the biological activity of individual peaks was carried out using the same antineoplastic test already evaluated for the whole extract. The main purpose of these studies was to identify who are the peaks with the highest biological activity and to determine a synergistic effect among the different compounds.

| SMILES | antineoplastic activity of peaks and peak combinations | concentration at which inhibitory effect of cellular proliferation was observed, converted (LoVo, corresponds to 1.7 mM) | concentration at which inhibitory effect of cellular proliferation was observed (LoVo, tested at 0.017, 0.17 and 1.7 mM, FIG. 4) |
| --- | --- | --- | --- |
| O=c1cc(-c2ccc(O)c(O)c2)oc2c(C3OC(CO)C(O)C(O)C3OC3OCC(O)C(O)C3O)c(O)cc(O)c12 (single isomer, unassigned; peak 1) [peak 1, 2″-O-β-O arabinopyranoside orientin (orientin traces)] | only a weak antineoplastic activity | – | – |
| COc1cc(O)c2c(=O)cc(-c3ccc(O)c(O)c3)oc2c1C1OC(CO)C(O)C(O)C1OC1OCC(O)C(O)C1O (single isomer, unassigned; peak 2) [peak 2, isowertiajaponine (7-O-methyl orientin-2″-O-arabinopiranoside)] | only a weak antineoplastic activity | 1000 µg/mL | 1.7 mM |

Source: US20110177178A1, “Extracts of Deschampsia antarctica Desv. with antineoplastic activity” (Uxmal S.A., Chile, priority 2007, published 2011)
